Reference: publication PMC3893073, “Structural and Functional Analyses of a Sterol Carrier Protein in Spodoptera litura” (PLoS ONE, 2014)
Entries after “also recorded” stand apart in the source; their conditions may differ. Like-named read-outs stand apart in the source and are kept apart here.

What was measured:
SlSCPx-2 = SlSCPx-2 (Spodoptera litura, UniProt D1GJ60); experiment: 1,8-ANS fluorescence displacement (competitive binding) assay, wild type rSlSCPx-2; settings: for RBAchol / RBApal: IC50 of wild type for the same ligand (=100%)
Protocol: Binding of the fluorescent probe 1, 8-ANS to sterol carrier protein (SlSCPx-2) is measured by relative increase in fluorescent intensity. Steady-state fluorescence spectra were measured on a Cary Eclipse fluorescence spectrophotometer (Varian, Mulgrave, Australia) using a 1-cm path length cuvette. The binding was monitored by measuring the fluorescence signal between 400 and 600 nm following excitation at 350 nm. Slit widths were set to 5 and 10 nm for the excitation and emission monochromators, respectively. […] All measurements were performed at room temperature and the samples were equilibrated for 5 min prior to measurement. At each of the given concentrations, at least three replicates were performed.
(§1) After the incubation, each potential ligand at a serial of concentration (0–100 µM) was added into the 1, 8-ANS-protein mixture for another 2.5 min and the fluorescence intensity of the 1,8-ANS-protein complex was measured as previously described. The control was the reaction of ANS probe and a series of concentration (0–100 µM) of ligands without the protein. To calculate binding activity of the ligands and the protein, the fluorescence intensity of the controls were subtracted from the total fluorescence intensity of the 1, 8-ANS-protein complex in the presence of ligands tested. Each ligand replacement assay was repeated for three times.

S. litura larvae = experiment: Diet bioassay for inhibition of growth of S. litura larvae; type: in vivo, Spodoptera litura; settings: for inhibitory effect on the growth of S. litura larvae: newly hatched larvae, artificial diet with 3, 12 and 48 µg/g diet; for body weight of the treated larvae: 13 days post egg hatching, increasing concentrations 3, 12, 48 µg/g diet, compared to the control
Protocol: Newly hatched S. litura larvae (30 larvae per treatment) were reared in artificial diet in presence of each chemical at different concentrations of 3, 12 and 48 µg/g diet. Control larvae were fed in the diet with diluted acetone (solvent for the chemical). Fresh diet was provided every other day. Larvae development was monitored until pupation. Larvae were weighted at 13 days post egg hatching when most of the larvae were at 5th instar stage.

A. aegypti = tested on: A. aegypti; set-up: method as in PMID 15627652; settings: cited from earlier work
H. armigera neonates = settings: cited from earlier work
SlSCPx-2 F110W = SlSCPx-2 F110W (Spodoptera litura, UniProt D1GJ60, F500W); experiment: biochemical; type: binding
Protocol: (§2) Binding of the fluorescent probe 1, 8-ANS to SlSCPx-2 can be competed with physiological ligands. SlSCPx-2 at 15 µM was incubated with 1, 8-ANS at 15 µM in the reaction buffer (pH 7.0) at room temperature for 2.5 min. […] […] To calculate binding activity of the ligands and the protein, the fluorescence intensity of the controls were subtracted from the total fluorescence intensity of the 1, 8-ANS-protein complex in the presence of ligands tested. Each ligand replacement assay was repeated for three times.
(§3) Various mutations in His-tagged SlSCPx-2 were constructed by using the Stratagene QuickChange Site-Directed Mutagenesis Kit (TAKARA, Dalian, China). Recombined plasmid containing SlSCPx-2 fused with the His-Tag sequence in a pPROEXTM HTa vector was used as a template. Two complementary primer pairs containing the desired mutations were used to construct each gene mutant. All mutant sequences were confirmed by DNA sequencing. The binding affinity of the mutants with the various ligands was examined using the fluorescence displacement assay as described above.

SlSCPx-2 F53A = SlSCPx-2 F53A (Spodoptera litura, UniProt D1GJ60, F443A); experiment: biochemical; type: binding
Protocol: as §2, §3

SlSCPx-2 F53W = SlSCPx-2 F53W (Spodoptera litura, UniProt D1GJ60, F443W); experiment: biochemical; type: binding
Protocol: as §2, §3

SlSCPx-2 F89A = SlSCPx-2 F89A (Spodoptera litura, UniProt D1GJ60, F479A); experiment: biochemical; type: binding
Protocol: as §2, §3

SlSCPx-2 I115M = SlSCPx-2 I115M (Spodoptera litura, UniProt D1GJ60, I505M); experiment: biochemical; type: binding
Protocol: as §2, §3

SlSCPx-2 Q131A = SlSCPx-2 Q131A (Spodoptera litura, UniProt D1GJ60, Q521A); experiment: biochemical; type: binding
Protocol: as §2, §3

SlSCPx-2 W66E = SlSCPx-2 W66E (Spodoptera litura, UniProt D1GJ60, W456E); experiment: biochemical; type: binding
Protocol: as §2, §3

SlSCPx-2 F89W = SlSCPx-2 F89W (Spodoptera litura, UniProt D1GJ60, F479W); experiment: biochemical; type: binding
Protocol: as §1, with “Binding of the fluorescent probe 1, 8-ANS to SlSCPx-2 can be competed with physiological ligands. SlSCPx-2 at 15 µM was incubated with 1, 8-ANS at 15 µM in the reaction buffer (pH 7.0) at room temperature for 2.5 min. After” for “After”
as §3

SlSCPx-2 T128A = SlSCPx-2 T128A (Spodoptera litura, UniProt D1GJ60, T518A); experiment: biochemical; type: binding
Protocol: as §1, with “Binding of the fluorescent probe 1, 8-ANS to SlSCPx-2 can be competed with physiological ligands. SlSCPx-2 at 15 µM was incubated with 1, 8-ANS at 15 µM in the reaction buffer (pH 7.0) at room temperature for 2.5 min. After” for “After”
as §3

SlSCPx-2 F110A = SlSCPx-2 F110A (Spodoptera litura, UniProt D1GJ60, F500A); experiment: biochemical; type: binding
Protocol: as §1, with “Binding of the fluorescent probe 1, 8-ANS to SlSCPx-2 can be competed with physiological ligands. SlSCPx-2 at 15 µM was incubated with 1, 8-ANS at 15 µM in the reaction buffer (pH 7.0) at room temperature for 2.5 min. After” for “After”
as §3

[1] = wild type, displacement of 15 µM 1,8-ANS from 15 µM SlSCPx-2, pH 7.0, read-out: IC50
[2] = IC50 of cholesterol (=100%) divided by IC50 of each chemical

Compound: C=CCc1cccc(/C=N/NC(=O)COc2ccccc2C)c1O [AG-205/07775053]
- RBA (relative binding affinity) (SlSCPx-2): 0.6%
- IC50 (SlSCPx-2; [1]): 8630 ± 393 µM
- inhibitory effect on the growth of S. litura larvae (S. litura larvae): inhibited the growth; also recorded: high inhibitory effect; also recorded: had inhibitory effect

Compound: CCCCCCOC(=O)c1ccc(NC(=O)CCC)cc1 [AG-205/36813059]
- RBA (relative binding affinity) (SlSCPx-2): 210%
- IC50 (SlSCPx-2; [1]): 23.9 ± 1.38 µM
- inhibitory effect on the growth of S. litura larvae (S. litura larvae): inhibited the growth; also recorded: a certain degree of biological activity; also recorded: had inhibitory effect

Compound: Cc1cc(OCCCCc2c(C)n[nH]c2C)ccc1Cl [AG-664/14117324]
- RBA (relative binding affinity) (SlSCPx-2): 1943%
- IC50 (SlSCPx-2; [1]): 2.58 ± 0.2 µM
- body weight of the treated larvae (S. litura larvae): decreased, significantly
- inhibitory effect on the growth of S. litura larvae (S. litura larvae): inhibited the growth; also recorded: had inhibitory effect

Compound: CCc1ccc(C(=O)/C=C/Nc2ccc(NC(C)=O)cc2)cc1 [AH-487/41731687]
- RBA (relative binding affinity) (SlSCPx-2): 1166%
- IC50 (SlSCPx-2; [1]): 4.3 ± 0.63 µM
- body weight of the treated larvae (S. litura larvae): decreased, significantly
- inhibitory effect on the growth of S. litura larvae (S. litura larvae): inhibited the growth; also recorded: had inhibitory effect

Compound: CC(=O)Nc1ccc(Nc2nc(-c3ccc(Cl)c(Cl)c3)cs2)cc1 [AeSCPI-1, reference compound]
- RBA (relative binding affinity) (SlSCPx-2): 31%
- IC50 (SlSCPx-2; [1]): 161 ± 5.03 µM
- time to kill the larvae post the treatment (A. aegypti; A. aegypti larvae): ≤ 3 days
- lethality to H. armigera neonates (H. armigera neonates): lethal

Compound: COc1cccc(-n2sc3c(c2=S)-c2cc(Cl)ccc2NC3(C)C)c1 [AeSCPI-2, reference compound]
- RBA (relative binding affinity) (SlSCPx-2): 91%
- IC50 (SlSCPx-2; [1]): 55 ± 0.66 µM
- mortality in A. aegypti (A. aegypti): caused death at larva-to-pupa transition period

Compound: CCCCC/C=C\C/C=C\C/C=C\C/C=C\CCCC(=O)O [Arachidonate, arachidonic acid]
- IC50 (SlSCPx-2): 18.1 ± 0.83 µM
- RBA (relative binding affinity) (SlSCPx-2; [2]): 277%

Compound: CC(C)CCC[C@@H](C)[C@H]1CC[C@H]2[C@@H]3CC=C4C[C@@H](O)CC[C@]4(C)[C@H]3CC[C@]12C [Cholesterol, reference compound]
- RBAchol / RBApal (SlSCPx-2; wild type): 100%
- IC50 (SlSCPx-2; [1]): 50.1 ± 0.8 µM
- IC50 (SlSCPx-2 F110W): 231 ± 2.36 µM
- IC50 (SlSCPx-2 F53A): 7300 ± 280 µM
- IC50 (SlSCPx-2 F53W): 4669 ± 23.2 µM
- IC50 (SlSCPx-2 F89A): 1743 ± 1.3 µM
- IC50 (SlSCPx-2 I115M): 34.3 ± 1.53 µM
- IC50 (SlSCPx-2 Q131A): 2690 ± 34.2 µM
- IC50 (SlSCPx-2 W66E): 974 ± 10.7 µM
- IC50 (SlSCPx-2 F89W): 5.58 ± 1.23 µM
- IC50 (SlSCPx-2 T128A): 20.8 ± 1.32 µM

Compound: CC(C)[C@@H](C)/C=C/[C@@H](C)[C@H]1CC[C@H]2C3=CC=C4C[C@@H](O)CC[C@]4(C)[C@H]3CC[C@]12C [Ergosterol]
- IC50 (SlSCPx-2): 167.6 ± 0.34 µM
- RBA (relative binding affinity) (SlSCPx-2): 30%

Compound: CCCCC/C=C\C/C=C\CCCCCCCC(=O)O [Linoleic acid]
- RBA (relative binding affinity) (SlSCPx-2): 35%
- IC50 (SlSCPx-2; [1]): 143 ± 0.99 µM

Compound: CCCCCCCC(=O)O [Octanoate, reference compound]
- RBA (relative binding affinity) (SlSCPx-2; [2]): 23%
- IC50 (SlSCPx-2; [1]): 217.9 ± 1.53 µM

Compound: CCCCCCCC/C=C\CCCCCCCC(=O)O [Oleic acid]
- IC50 (SlSCPx-2): 24.4 ± 1.14 µM
- RBA (relative binding affinity) (SlSCPx-2): 206%

Compound: CCCCCCCCCCCCCCCC(=O)O [Palmitic acid]
- RBA (relative binding affinity) (SlSCPx-2): 85%
- RBAchol / RBApal (SlSCPx-2; wild type): 100%
- IC50 (SlSCPx-2; [1]): 59.1 ± 1.29 µM
- IC50 (SlSCPx-2 F110W): 503.3 ± 2.7 µM
- IC50 (SlSCPx-2 F53A): 71.7 ± 0.84 µM
- IC50 (SlSCPx-2 F53W): 5777 ± 28 µM
- IC50 (SlSCPx-2 I115M): 6617 ± 38.2 µM
- IC50 (SlSCPx-2 Q131A): 354.8 ± 2.55 µM
- IC50 (SlSCPx-2 W66E): 67.3 ± 3.43 µM
- IC50 (SlSCPx-2 F110A): 41.7 ± 1.62 µM
- IC50 (SlSCPx-2 F89W): 77.5 ± 1.51 µM
- IC50 (SlSCPx-2 T128A): 32.8 ± 1.52 µM

Compound: CCCCCCCCCCCCCCCCCC(=O)O [Stearic acid]
- RBA (relative binding affinity) (SlSCPx-2): 126%
- IC50 (SlSCPx-2; [1]): 39.8 ± 1.17 µM

Compound: CC[C@H](/C=C/[C@@H](C)[C@H]1CC[C@H]2[C@@H]3CC=C4C[C@@H](O)CC[C@]4(C)[C@H]3CC[C@]12C)C(C)C [Stigmasterol]
- IC50 (SlSCPx-2): 190 ± 2.29 µM
- RBA (relative binding affinity) (SlSCPx-2): 26%
